Measurements reported in patent publication US20250346580A1, “NOVEL PYRIMIDINYL SULFONAMIDE DERIVATIVES” (Hoffmann-La Roche Inc., priority 2023, published 2025).

Each compound was assayed against human GPR17 short isoform (Homo sapiens, UniProt Q13304) (assay: GPR17 cAMP assay (hGPR17 cAMP)). Conditions: CHO-K1 cells stably expressing human GPR17 short isoform; antagonist mode with EC80 of MDL29,951, forskolin 15 μM, TR-FRET cAMP.
Type: cell-based
Experimental: GPR17 cAMP Assay Protocol:
CHO-K1 cells stably expressing vector containing untagged human GPR17 short isoform (Roche) were cultured at 37° C./5% CO2 in DMEM (Dulbecco's Modified Eagle Medium):F-12 (1:1) supplemented with 10% foetal bovine serum and 400 μg/ml Geneticin.
Changes in intracellular cyclic adenosine monophosphate (cAMP) levels were quantified using the Nano-TRF Detection Assay kit (Roche Diagnostics, Cat. No. 05214386001). This assay allows for direct cAMP quantification in a homogeneous solution. cAMP is detected based on time-resolved fluorescence energy transfer (TR-FRET) and competitive binding of ruthenylated cAMP and endogenous cAMP to an anti-cAMP monoclonal antibody labeled with AlexaFluor-700. The Ruthenium complex serves as the FRET donor and transfers energy to AlexaFluor-700. The FRET signal is inversely proportional to the cAMP concentration.
CHO-GPR17S cells were detached with Accutase and resuspended in assay buffer consisting of Hank's Balanced Salt Solution (HBSS), 10 mM HEPES (4-(2-hydroxyethyl) piperazine-1-ethanesulfonic acid solution) and 0.1% bovine serum albumin (pH 7.4). The cells were seeded in black 384-well plates (Corning) at a density of 10'000 cells/20 μl assay buffer until the addition of compounds.
Test antagonist compounds were serially diluted in dimethyl sulfoxide (DMSO) and spotted in 384-well plates. The compounds were then diluted in HBSS buffer supplemented with an EC80 concentration of MDL29,951 (3-(2-Carboxy-4,6-dichloroindol-3-yl)propionic acid) (GPR17 agonist) plus 3-Isobutyl-1-methylxanthine (IBMX) (0.5 mM final concentration) and added to the cells at room temperature. Forskolin (15 μM final concentration) was added 5 minutes after the test compounds and the cells were incubated at room temperature for 30 minutes. The assay was stopped by adding cAMP detection mix (containing detergents for cell lysis) for 90 minutes at room temperature.
Cellular cAMP was measured using a Paradigm reader (Molecular Devices). The raw data was used to calculate the FRET signal based on the assay's P-factor as per cAMP kit instructions. The data was normalized to the maximal activity of a reference antagonist and dose response curves were fitted to the percent activity of the test compounds using a sigmoidal dose response model (Genedata Screener).

Chain of human GPR17 short isoform (Q13304 29-367): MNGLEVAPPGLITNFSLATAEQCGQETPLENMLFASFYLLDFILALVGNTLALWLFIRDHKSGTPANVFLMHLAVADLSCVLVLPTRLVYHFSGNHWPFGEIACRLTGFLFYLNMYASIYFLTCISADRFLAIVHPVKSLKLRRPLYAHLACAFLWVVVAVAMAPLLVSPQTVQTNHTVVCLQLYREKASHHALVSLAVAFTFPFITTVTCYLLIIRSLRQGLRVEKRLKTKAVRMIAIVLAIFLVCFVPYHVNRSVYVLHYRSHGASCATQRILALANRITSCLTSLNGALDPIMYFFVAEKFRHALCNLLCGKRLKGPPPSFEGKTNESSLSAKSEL

| IC50 [nM] | SMILES |
| --- | --- |
| 478 | COc1nc(NS(=O)(=O)c2c[nH]c(-c3ccccc3)c2)nc(OC)c1OC(F)F [Example 2, N-[5-(difluoromethoxy)-4,6-dimethoxy-pyrimidin-2-yl]-5-phenyl-1H-pyrrole-3-sulfonamide] |
| 73 | COc1nc(NS(=O)(=O)c2c[nH]c(-c3ccccc3)c2)nc(OC)c1OCCF [Example 3, N-[5-(2-fluoroethoxy)-4,6-dimethoxy-pyrimidin-2-yl]-5-phenyl-1H-pyrrole-3-sulfonamide] |
| 500 | COc1nc(NS(=O)(=O)c2c[nH]c(-c3nccs3)c2)nc(OC)c1OCC(F)F [Example 4, N-[5-(2,2-difluoroethoxy)-4,6-dimethoxy-pyrimidin-2-yl]-5-thiazol-2-yl-1H-pyrrole-3-sulfonamide] |
| 325 | COc1nc(NS(=O)(=O)c2c[nH]c(-c3ncccc3F)c2)nc(OC)c1OC(F)F [Example 5, N-[5-(difluoromethoxy)-4,6-dimethoxy-pyrimidin-2-yl]-5-(3-fluoro-2-pyridyl)-1H-pyrrole-3-sulfonamide] |
| 107 | COc1nc(NS(=O)(=O)c2c[nH]c(-c3ncccc3F)c2)nc(OC)c1CC(F)F [Example 6, N-[5-(2,2-difluoroethyl)-4,6-dimethoxy-pyrimidin-2-yl]-5-(3-fluoro-2-pyridyl)-1H-pyrrole-3-sulfonamide] |
| 99 | COc1nc(NS(=O)(=O)c2c[nH]c(-c3ncccc3F)c2)nc(OC)c1OCC(F)F [Example 8, N-[5-(2,2-difluoroethoxy)-4,6-dimethoxy-pyrimidin-2-yl]-5-(3-fluoro-2-pyridyl)-1H-pyrrole-3-sulfonamide] |
| 697 | COc1nc(NS(=O)(=O)c2c[nH]c(-c3nccs3)c2)ncc1OCC(F)F [Example 9, N-[5-(2,2-difluoroethoxy)-4-methoxy-pyrimidin-2-yl]-5-thiazol-2-yl-1H-pyrrole-3-sulfonamide] |
| 69 | COc1nc(NS(=O)(=O)c2c[nH]c(-c3nccs3)c2)nc(OC)c1CCC#N [Example 10, N-[5-(2-cyanoethyl)-4,6-dimethoxy-pyrimidin-2-yl]-5-thiazol-2-yl-1H-pyrrole-3-sulfonamide] |
| 142 | COc1nc(NS(=O)(=O)c2c[nH]c(-c3ccsn3)c2)nc(OC)c1OCC(F)F [Example 11, N-[5-(2,2-difluoroethoxy)-4,6-dimethoxy-pyrimidin-2-yl]-5-isothiazol-3-yl-1H-pyrrole-3-sulfonamide] |
| 169 | COc1nc(NS(=O)(=O)c2c[nH]c(-c3ccccc3)c2)nc(OC)c1CC(F)F [Example 12, N-[5-(2,2-difluoroethyl)-4,6-dimethoxy-pyrimidin-2-yl]-5-phenyl-1H-pyrrole-3-sulfonamide] |
| 661 | COc1nc(NS(=O)(=O)c2c[nH]c(-c3cscn3)c2)nc(OC)c1CC(F)F [Example 15, N-[5-(2,2-difluoroethyl)-4,6-dimethoxy-pyrimidin-2-yl]-5-thiazol-4-yl-1H-pyrrole-3-sulfonamide] |
| 2270 | COc1nc(NS(=O)(=O)c2c[nH]c(-c3cscn3)c2)nc(OC)c1OC(F)F [Example 16, N-[5-(difluoromethoxy)-4,6-dimethoxy-pyrimidin-2-yl]-5-thiazol-4-yl-1H-pyrrole-3-sulfonamide] |
| 133 | COc1nc(NS(=O)(=O)c2c[nH]c(-c3ccccn3)c2)nc(OC)c1CC(F)F [Example 17, N-[5-(2,2-difluoroethyl)-4,6-dimethoxy-pyrimidin-2-yl]-5-(2-pyridyl)-1H-pyrrole-3-sulfonamide] |
| 344 | COc1nc(NS(=O)(=O)c2c[nH]c(-c3ccccn3)c2)nc(OC)c1OC(F)F [Example 18, N-[5-(difluoromethoxy)-4,6-dimethoxy-pyrimidin-2-yl]-5-(2-pyridyl)-1H-pyrrole-3-sulfonamide] |
| 182 | COc1nc(NS(=O)(=O)c2c[nH]c(-c3ccccn3)c2)nc(OC)c1OCC(F)F [Example 19, N-[5-(2,2-difluoroethoxy)-4,6-dimethoxy-pyrimidin-2-yl]-5-(2-pyridyl)-1H-pyrrole-3-sulfonamide] |
| 198 | COc1nc(NS(=O)(=O)c2c[nH]c(-c3nc(C)cs3)c2)nc(OC)c1CC(F)F [Example 20, N-[5-(2,2-difluoroethyl)-4,6-dimethoxy-pyrimidin-2-yl]-5-(4-methylthiazol-2-yl)-1H-pyrrole-3-sulfonamide] |

| IC50 [nM] | SMILES |
| --- | --- |
| 635 | COc1nc(NS(=O)(=O)c2c[nH]cc2Cc2ccccc2)nc(OC)c1CC(F)F [Example 21, 4-benzyl-N-[5-(2,2-difluoroethyl)-4,6-dimethoxy-pyrimidin-2-yl]-1H-pyrrole-3-sulfonamide] |
| 2260 | COc1nc(NS(=O)(=O)c2c[nH]cc2Cc2ccccc2)nc(OC)c1OC(F)F [Example 22, 4-benzyl-N-[5-(difluoromethoxy)-4,6-dimethoxy-pyrimidin-2-yl]-1H-pyrrole-3-sulfonamide] |
| 45 | COc1nc(NS(=O)(=O)c2c[nH]c(-c3ncccc3F)c2)nc(OC)c1CCC#N [Example 23, N-[5-(2-cyanoethyl)-4,6-dimethoxy-pyrimidin-2-yl]-5-(3-fluoro-2-pyridyl)-1H-pyrrole-3-sulfonamide] |
| 331 | COc1nc(NS(=O)(=O)c2c[nH]c(-c3ncccc3F)c2)ncc1CC(F)F [Example 24, N-[5-(2,2-difluoroethyl)-4-methoxy-pyrimidin-2-yl]-5-(3-fluoro-2-pyridyl)-1H-pyrrole-3-sulfonamide] |
| 916 | COc1nc(NS(=O)(=O)c2c[nH]c(-c3cscn3)c2)nc(OC)c1OCCF [Example 25, N-[5-(2-fluoroethoxy)-4,6-dimethoxy-pyrimidin-2-yl]-5-thiazol-4-yl-1H-pyrrole-3-sulfonamide] |
| 724 | COc1nc(NS(=O)(=O)c2c[nH]c(-c3cscn3)c2)nc(OC)c1OCC(F)F [Example 26, N-[5-(2,2-difluoroethoxy)-4,6-dimethoxy-pyrimidin-2-yl]-5-thiazol-4-yl-1H-pyrrole-3-sulfonamide] |
| 127 | COc1nc(NS(=O)(=O)c2c[nH]c(-c3ccccn3)c2)nc(OC)c1OCCF [Example 27, N-[5-(2-fluoroethoxy)-4,6-dimethoxy-pyrimidin-2-yl]-5-(2-pyridyl)-1H-pyrrole-3-sulfonamide] |
| 1080 | COc1nc(NS(=O)(=O)c2c[nH]cc2Cc2ccccc2)nc(OC)c1OCCF [Example 28, 4-benzyl-N-[5-(2-fluoroethoxy)-4,6-dimethoxy-pyrimidin-2-yl]-1H-pyrrole-3-sulfonamide] |
| 964 | [2H]C([2H])(c1cccc(F)c1)c1c[nH]cc1S(=O)(=O)Nc1nc(OC)c(OCC(F)F)c(OC)n1 [Example 29, 4-[dideuterio-(3-fluorophenyl)methyl]-N-[5-(2,2-difluoroethoxy)-4,6-dimethoxy-pyrimidin-2-yl]-1H-pyrrole-3-sulfonamide] |
| 1860 | COc1nc(NS(=O)(=O)c2c[nH]cc2Cc2ccccc2)nc(OC)c1OCC(F)F [Example 30, 4-benzyl-N-[5-(2,2-difluoroethoxy)-4,6-dimethoxy-pyrimidin-2-yl]-1H-pyrrole-3-sulfonamide] |
| 222 | COc1nc(NS(=O)(=O)c2c[nH]c(-c3nc(C)cs3)c2)nc(OC)c1OCCF [Example 31, N-[5-(2-fluoroethoxy)-4,6-dimethoxy-pyrimidin-2-yl]-5-(4-methylthiazol-2-yl)-1H-pyrrole-3-sulfonamide] |
| 523 | COc1nc(NS(=O)(=O)c2c[nH]c(-c3nc(C)cs3)c2)nc(OC)c1OC(F)F [Example 32, N-[5-(difluoromethoxy)-4,6-dimethoxy-pyrimidin-2-yl]-5-(4-methylthiazol-2-yl)-1H-pyrrole-3-sulfonamide] |
| 283 | COc1nc(NS(=O)(=O)c2c[nH]c(-c3nc(C)cs3)c2)nc(OC)c1OCC(F)F [Example 33, N-[5-(2,2-difluoroethoxy)-4,6-dimethoxy-pyrimidin-2-yl]-5-(4-methylthiazol-2-yl)-1H-pyrrole-3-sulfonamide] |
| 457 | COc1nc(NS(=O)(=O)c2c[nH]c(-c3nccs3)c2)ncc1CC(F)F [Example 34, N-[5-(2,2-difluoroethyl)-4-methoxy-pyrimidin-2-yl]-5-thiazol-2-yl-1H-pyrrole-3-sulfonamide] |
| 170 | COc1nc(NS(=O)(=O)c2c[nH]c(-c3nccs3)c2)nc(OC)c1C1CC1C#N (centres unmarked) [Example 35, N-[5-(2-cyanocyclopropyl)-4,6-dimethoxy-pyrimidin-2-yl]-5-thiazol-2-yl-1H-pyrrole-3-sulfonamide] |
| 111 | COc1nc(NS(=O)(=O)c2c[nH]c(-c3cncs3)c2)nc(OC)c1OCC(F)F [Example 36, N-[5-(2,2-difluoroethoxy)-4,6-dimethoxy-pyrimidin-2-yl]-5-thiazol-5-yl-1H-pyrrole-3-sulfonamide] |
